± gives the expanded uncertainty stated by the source.
Tests used:
[1] = DTA
[2] = Molar enthalpy of transition or fusion; conditions: DSC
[3] = molar heat capacity at constant pressure; conditions: 101.33 kPa, Small sample (50 mg) DSC

[BH4-].[Li+] [lithium tetrahydroborate]
Conditions	Molar enthalpy of transition or fusion, [2] [kcal/mol]	Triple point temperature, [1] [K]
Crystal 1	1.96 ± 0.153	553 ± 1
Crystal 2	1.21 ± 0.0574	386.6 ± 0.5

[3]
Conditions	molar heat capacity at constant pressure [J/K/mol]
298 K, Crystal 2	81.51 ± 4.2
310 K, Crystal 2	84.51 ± 4.4
320 K, Crystal 2	87.33 ± 4.5
330 K, Crystal 2	89.53 ± 4.7
340 K, Crystal 2	91.21 ± 4.7
350 K, Crystal 2	92.47 ± 4.8
360 K, Crystal 2	95.46 ± 5
370 K, Crystal 2	101.2 ± 5.3
380 K, Crystal 2	106.02 ± 5.5
410 K, Crystal 1	91.06 ± 4.7
420 K, Crystal 1	91.83 ± 4.8
430 K, Crystal 1	93.09 ± 4.8
440 K, Crystal 1	94.12 ± 4.9
450 K, Crystal 1	95.43 ± 5
460 K, Crystal 1	96.7 ± 5
470 K, Crystal 1	97.95 ± 5.1
480 K, Crystal 1	99.14 ± 5.2
490 K, Crystal 1	100.69 ± 5.2
500 K, Crystal 1	101.9 ± 5.3
510 K, Crystal 1	103.3 ± 5.4
520 K, Crystal 1	104.78 ± 5.4

— the NIST ThermoML archive (doi:10.1016/j.tca.2011.02.043)
